Measured values published in paper PMC9182007, “Statistical Methods in the Study of Protein Binding and Its Relationship to Drug Bioavailability in Breast Milk” (Molecules, 2022).
Like-named read-outs stand apart in the source and are kept apart here.

Key:
[1] = NP TLC on non-impregnated control plates; format: physicochemical; settings: for CNP (Rf, control NP plate): Table S3, non-impregnated NP plate, acetonitrile/acetate buffer pH 7.4/methanol 60:20:20; for CNP (Rf value from the non-impregnated NP plate, control): Table S8, external group
[2] = RP TLC on non-impregnated control plates; format: physicochemical; settings: for CRP (Rf, control RP plate): Table S4, non-impregnated RP plate, acetonitrile/acetate buffer pH 7.4/methanol 60:20:20; for CRP (Rf value from the non-impregnated RP plate, control): Table S8, external group
[3] = HPLC on immobilized artificial membrane column (HPLCIAM); format: physicochemical; settings: for log k IAM: Table S5, IAM column, pH 7.4; for k IAM: Table S5, retention factor, IAM column, phosphate buffer pH 7.4/acetonitrile 80:20; for kIAM / log kIAM: Table S9, external group
Description: High performance liquid chromatography was performed using immobilized human serum albumin column (HPLCHSA) and immobilized artificial membrane (HPLCIAM). HPLC was the source of the log k values (logarithm of retention factor), log kHSA and log kIAM.
The second experiment was performed using an immobilized artificial membrane (IAM) column. The assay was also performed on a Perkin Elmer Series 200 instrument connected to a UV-VIS spectrometer as the detector. The analytical wavelength was the same for all compounds, at 210 nm. […] The mobile phase was a mixture of 10 mM phosphate buffer pH 7.4 and acetonitrile in the ratio 80:20 (v/v). The phosphate buffer was obtained by dissolving the finished tablet in the appropriate amount of distilled water (1 tablet per 200 mL). In this case, it was not necessary to adjust the pH of the buffer using a pH meter.
The phase flow through the system was set to 0.5 mL/min as recommended by the column manufacturer. The solutions were delivered to the column using an autosampler syringe, the injection size was 10 µL.
The experiment was then repeated and the collected retention rates were the mean values of both series.

plasma protein = settings: ref DrugBank [7], cited from earlier work
[4] = target: T1, human serum albumin (HSA) (Homo sapiens, UniProt P02768); settings: for k HSA: Table S5, retention factor, HSA column, pH 7.4, 25 degrees Celsius
T1 sequence (P02768 25-609): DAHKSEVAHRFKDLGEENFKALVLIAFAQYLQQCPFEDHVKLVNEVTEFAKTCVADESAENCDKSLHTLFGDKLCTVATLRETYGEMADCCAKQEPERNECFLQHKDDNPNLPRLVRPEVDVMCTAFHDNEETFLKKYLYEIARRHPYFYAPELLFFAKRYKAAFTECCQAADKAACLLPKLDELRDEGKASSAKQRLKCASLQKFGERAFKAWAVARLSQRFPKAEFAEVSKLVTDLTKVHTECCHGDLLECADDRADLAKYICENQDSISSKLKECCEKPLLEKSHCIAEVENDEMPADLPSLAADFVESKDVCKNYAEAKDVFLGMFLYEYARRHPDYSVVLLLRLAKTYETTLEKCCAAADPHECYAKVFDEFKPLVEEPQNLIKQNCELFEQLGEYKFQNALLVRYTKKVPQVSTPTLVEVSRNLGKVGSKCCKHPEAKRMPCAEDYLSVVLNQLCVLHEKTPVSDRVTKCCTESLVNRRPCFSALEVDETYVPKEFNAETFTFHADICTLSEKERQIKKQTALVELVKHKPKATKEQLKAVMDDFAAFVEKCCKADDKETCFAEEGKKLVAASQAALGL

[5] = target: T2, bovine serum albumin (BSA) (Bos taurus, UniProt P02769); test: RP TLC on plates impregnated with bovine serum albumin; format: binding; settings: for RP (Rf, BSA-impregnated RP plate): Table S4, RP plate impregnated with 2 mg/mL BSA, pH 7.4 mobile phase; for RP (Rf value from the RP plate impregnated with 2 mg/mL BSA solution): Table S8, external group
T2 construct: purchased Sigma Aldrich
T2 sequence (P02769 25-607): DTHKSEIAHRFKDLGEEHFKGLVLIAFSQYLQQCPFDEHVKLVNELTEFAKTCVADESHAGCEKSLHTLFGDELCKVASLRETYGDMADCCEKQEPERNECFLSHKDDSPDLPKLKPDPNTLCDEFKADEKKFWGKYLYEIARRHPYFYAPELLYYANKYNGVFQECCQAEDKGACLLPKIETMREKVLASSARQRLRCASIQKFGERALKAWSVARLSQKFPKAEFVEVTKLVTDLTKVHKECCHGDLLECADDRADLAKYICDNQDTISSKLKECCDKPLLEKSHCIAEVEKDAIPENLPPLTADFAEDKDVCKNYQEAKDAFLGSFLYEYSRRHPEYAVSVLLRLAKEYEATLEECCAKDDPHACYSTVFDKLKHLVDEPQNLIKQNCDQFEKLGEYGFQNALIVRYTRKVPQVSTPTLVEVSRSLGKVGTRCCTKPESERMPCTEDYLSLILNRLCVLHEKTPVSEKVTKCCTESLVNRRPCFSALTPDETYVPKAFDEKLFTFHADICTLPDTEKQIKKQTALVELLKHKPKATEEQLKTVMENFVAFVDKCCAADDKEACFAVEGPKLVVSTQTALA
Excerpt: Chromatographic descriptors were obtained in experiments, thin layer chromatography in normal (NP TLC) and reversed mode (RP TLC). The stationary phase was modified with bovine serum albumin (BSA). TLC was the source of retention factor (Rf) values, denoted in statistical models as NP and RP.
For TLC chromatography, glass plates 20 × 20 cm from Merck, covered with silica gel with the addition of a fluorescent indicator, were used. Normal phase (NP) plates were used with standard Merck TLC Silica gel 60 F254 plates, while in reverse phase (RP) silanized plates RP-2: Merck TLC Silica gel 60 RP-2 F254 were used.
The stationary phase of the plates, both NP and RP, was modified with an aqueous solution of bovine serum albumin purchased from Sigma Aldrich (bovine serum albumin, lyophilized powder).
The impregnation of the plates was carried out with a 2 mg/mL solution applied to the surface using a Desaga SG 1 hand sprayer; the plates were then air dried. […] Normal and reversed phase thin layer chromatography (NP TLC and RP TLC respectively) was performed using silica-gel-coated glass plates. Half of them were covered with 2 mg/mL bovine serum albumin solution and half remained pure.
The mobility of the compounds was also determined on the plates with no protein as a modifier. […] The acetate buffer (20 mM) was prepared by dissolving 1.54 g of ammonium acetate in 1 L of distilled water. The pH was then adjusted with a concentrated ammonia solution using a pH meter. The plates were developed in standard, vertical chromatographic chambers, each time using 100 mL of the mobile phase, after the chamber was previously saturated with solvent vapors for approximately 1 h.
The unfolded-protein-impregnated plates and the control plates were scanned with a Desaga CD 60 densitometer. The values of the delay factor (Rf) were collected, i.e., the ratio of the distance traveled by the substance to be analyzed to the distance traveled through the front of the mobile phase. […] The experiment was repeated (for both BSA-coated and control plates) and the Rf values pooled are the mean of both series of experiments.

[6] = Milk-to-plasma (M/P) drug concentration ratio obtained in vivo, from literature; set-up: species or system human; settings: Table S1, scale of drug penetration into milk 1-4
[7] = target: T2, bovine serum albumin (BSA); test: NP TLC on plates impregnated with bovine serum albumin; format: binding; settings: for NP (Rf, BSA-impregnated NP plate): Table S3, NP plate impregnated with 2 mg/mL BSA, pH 7.4 mobile phase; for NP (Rf value from the NP plate impregnated with 2 mg/mL BSA solution): Table S8, external group
[8] = cited from earlier work
[9] = ref DrugBank [7], cited from earlier work
[10] = target: T1, human serum albumin (HSA); test: in vitro; settings: immobilized hsa column, pH 7.4
[11] = Table S1, plasma protein binding given as fraction
[12] = Table S6, external group, coded 1/0
[13] = Table S6, external group (n = 38), given as fraction
[14] = Table S6, external group (n = 38)
[15] = human, immobilized hsa column, pH 7.4

SMILES | CNP (Rf, control NP plate) [1] | CRP (Rf, control RP plate) [2] | log k IAM [3] | k IAM [3] | PB (plasma protein; [11]) | k HSA [4] | RP (Rf, BSA-impregnated RP plate) [5] | NP (Rf, BSA-impregnated NP plate) [7] | CNP (Rf value from the non-impregnated NP plate, control) [1] | CRP (Rf value from the non-impregnated RP plate, control) [2] | CNS+/- [9, 12] | kIAM [3] | log kIAM [3] | PB (plasma protein; [13]) | kHSA ([4]; Table S9, external group) | RP (Rf value from the RP plate impregnated with 2 mg/mL BSA solution) [5] | NP (Rf value from the NP plate impregnated with 2 mg/mL BSA solution) [7] | M/P [8, 14] | chromatographic logD [10] | CNS+/- ([9]; Table S1, coded 1/0) | further results
C[C@]12C=CC(=O)C=C1CC[C@@H]1[C@@H]2[C@@H](O)C[C@@]2(C)[C@H]1CC[C@]2(O)C(=O)CO [prednizolone] | 0.94 | 0.87 | 0.45 | 2.84 | 0.9 | 0.52 | 0.88 | 0.94 |  |  |  |  |  |  |  |  |  |  |  |  | log k HSA ([4]; Table S5, HSA, pH 7.4): -0.28; M/P code [6]: 1 (Code 1 corresponds to drugs with an M/P value <0.40—completely safe); M/P ([8]; Table S1, milk/plasma drug concentration ratio, in vivo): 0.13
NC(=O)N1c2ccccc2CC(=O)c2ccccc21 [oxcarbamazepine] |  |  |  |  |  |  |  |  | 0.91 | 0.91 | 1 | 2.26 | 0.35 | 0.40 | 0.40 | 0.91 | 0.90 | 0.50 |  |  | log kHSA ([4]; Table S9, external group): -0.40
CC[C@@H](C(N)=O)N1CCCC1=O [levetiracetam] |  |  |  |  |  |  |  |  | 0.92 | 0.92 | 1 | 1.62 | 0.21 | 0.10 | 0.07 | 0.92 | 0.92 | 1.00 |  |  | log kHSA ([4]; Table S9, external group): -1.16
O=C(c1ccccc1)c1ccc2n1CCC2C(=O)O (stereo not drawn) [ketorolac] |  |  |  |  |  |  |  |  | 0.92 | 0.96 | 1 | 2.39 | 0.38 | 0.99 | 9.65 | 0.96 | 0.91 | 0.03 | 0.98 |  | 
CCC(C)n1ncn(-c2ccc(N3CCN(c4ccc(OCC5COC(Cn6cncn6)(c6ccc(Cl)cc6Cl)O5)cc4)CC3)cc2)c1=O (stereo not drawn) [itraconazole] |  |  |  |  |  |  |  |  | 0.96 | 0.86 | 0 | 6.15 | 0.79 | 1.00 | 9.65 | 0.84 | 0.97 | 1.14 | 0.98 |  | 
CN1CCC(=C2c3ccccc3CC(=O)c3sccc32)CC1 [ketotifen] | 0.34 | 0.75 | 1.34 | 22.04 | 0.75 | 5.83 | 0.74 | 0.36 |  |  |  |  |  |  |  |  |  |  | 0.77 | 1 | 
CCCCN1CCCCC1C(=O)Nc1c(C)cccc1C (stereo not drawn) [bupivacaine] |  |  |  |  |  |  |  |  | 0.67 | 0.74 | 1 |  | 0.48 | 0.95 | 1.18 | 0.75 | 0.67 | 0.37 |  |  | log kHSA ([4]; Table S9, external group): 0.07
Nc1ccc(O)c(C(=O)O)c1 [mesalazine] |  |  |  |  |  |  |  |  |  | 0.99 | 0 | 1.28 | 0.11 | 0.43 | 0.18 | 0.97 |  | 2.69 | -0.73 |  | 
CN(C)CCC=C1c2ccccc2COc2ccccc21 [doxepin] |  |  |  |  |  |  |  |  | 0.30 |  | 1 | 2.81 | 0.45 | 0.76 | 4.25 | 0.54 | 0.31 | 1.37 |  |  | log kHSA [4, 15]: 0.63
CC[C@H]1OC(=O)[C@H](C)[C@@H](O[C@H]2C[C@@](C)(OC)[C@@H](O)[C@H](C)O2)[C@H](C)[C@@H](O[C@@H]2O[C@H](C)C[C@H](N(C)C)[C@H]2O)[C@](C)(O)C[C@@H](C)CN(C)[C@H](C)[C@@H](O)[C@]1(C)O [azithromycin] | 0.63 | 0.24 | -1.20 | 0.06 | 0.29 | 0.23 | 0.24 | 0.63 |  |  |  |  |  |  |  |  |  |  | -0.64 | 0 | 
CN1CCC(=C2c3ccccc3C=Cc3ccccc32)CC1 [cyproheptadine] | 0.45 | 0.45 | 1.38 | 23.79 | 0.975 | 9.7 | 0.47 | 0.43 |  |  |  |  |  |  |  |  |  |  | 0.99 | 1 | 
COC(=O)[C@@H]1CC2=CC(=O)CC[C@]2(C)[C@@]23O[C@@H]2C[C@@]2(C)[C@@H](CC[C@@]24CCC(=O)O4)[C@H]13 [eplerenone] | 0.94 | 0.84 | 0.19 | 1.54 | 0.5 | 0.21 | 0.85 | 0.94 |  |  |  |  |  |  |  |  |  |  | -0.68 | 1 | 
CC(N)C12CC3CC(CC(C3)C1)C2 (stereo not drawn) [rimantadine] |  |  |  |  |  |  |  |  | 0.92 | 0.95 | 1 | 1.91 | 0.28 |  | 0.16 | 0.95 | 0.92 | 2.00 |  |  | 
CN1CCC[C@@H]1Cc1c[nH]c2ccc(CCS(=O)(=O)c3ccccc3)cc12 [eletriptan] |  |  |  |  |  |  |  |  |  |  | 1 | 3.57 | 0.55 |  | 3.78 |  |  | 0.25 |  |  | log kHSA [4, 15]: 0.58
CCOC(=O)C1=C(C)NC(C)=C(C(=O)OC)C1c1cccc([N+](=O)[O-])c1 (stereo not drawn) [nitrendipine] |  |  |  |  |  |  |  |  | 0.97 | 0.86 | 0 | 2.98 | 0.47 | 0.99 | 3.55 | 0.86 | 0.97 | 0.30 |  |  | log kHSA ([4]; Table S9, external group): 0.55
CCC[C@@H]1C[C@@H](C(=O)N[C@@H]([C@H]2O[C@H](SC)[C@H](O)[C@@H](O)[C@H]2O)[C@@H](C)O)N(C)C1 [lincomycin] |  |  |  |  |  |  |  |  | 0.91 |  | 0 | 3.89 | 0.59 | 0.70 | 0.82 |  | 0.91 | 0.15 | -0.08 |  | 
Cc1ccc(S(=O)(=O)NC(=O)NN2CC3CCCC3C2)cc1 (stereo not drawn) [gliclazide] | 0.95 | 0.83 | -0.55 | 0.28 | 0.94 | 9.69 | 0.80 | 0.95 |  |  |  |  |  |  |  |  |  |  | 0.99 | 1 | 
CO/N=C(\C(=O)N[C@@H]1C(=O)N2C(C(=O)O)=C(COC(N)=O)CS[C@H]12)c1ccco1 [cefuroxime] | 0.97 | 0.88 | 0.23 | 1.69 | 0.5 | 0.23 | 0.87 | 0.98 |  |  |  |  |  |  |  |  |  |  | -0.64 | 0 | 
CC[C@@H](CO)NCCN[C@@H](CC)CO [ethambutol] |  |  |  |  |  |  |  |  | 0.19 | 0.97 | 0 | 2.18 | 0.34 |  | 1.73 | 0.95 | 0.21 | 1.00 |  |  | log kHSA [4, 15]: 0.24
